Experimental data from US8198085B2, “Somatic cells for use in cell therapy” (Core Dynamics Limited, priority 2005, dated 2012).
“And” between values parts separate entries of the source, which are not always exact repeats. Equal values may be shown once.

What was measured:
macrophages = assay: Membrane integrity (SYBR14/PI) of macrophage units after freeze thawing and freeze drying; format: cell-based; settings: for cell survival (membrane integrity): freeze-dried, 0.5M Trehalose
Text: Macrophage units were supplied by Professor Danon, Israel blood services, Tel-Hashomer, Israel. In the following experiments all buffy coats and/or macrophage units referred to were manipulated using the method and system for cultivating macrophages described in U.S. Pat. No. 6,146,890 which is incorporated herein by reference in its entirety, whereby hypo-osmotic shock is used to enhance the cells' differentiation into macrophages. Such manipulated cells were reported not to maintain viability after a conventional freezing process therefore their shelf life is very short, limiting their applications.
A part of the buffy coat was separated in order to produce mononuclear cells which include the monocyte/macrophage layer. The blood was separated on a Ficoll-Paque gradient for 30 minutes at 1000 g, afterwards the mononuclear layer was drawn out and washed twice in Phosphate Buffered Saline (PBS) (Calcium and Magnesium free, Bet Haemek, Israel) for 10 minutes at 200 g. The pellet was then resuspended with 3 ml of culture medium (RPMI 1640 with glutamine, 10% fetal calf serum and 1% antibiotic, all supplied by Bet Haemek, Israel). The rest of the buffy coat was left untouched.
Whole buffy coat or mononuclear cells in culture medium were incubated for one hour with different concentrations of Trehalose (0.1, 0.3, 0.5 and 1M). Incubation was done at 37° C., 5% CO2 humidified incubator.
Buffy coat samples and MNC samples were frozen by using the MTG-516 freezing apparatus (IMT, Israel) at a cooling rate of 5.1° C./min. Samples were rotated during freezing at 56 rounds per minute. After freezing, all samples were plunged into liquid nitrogen. Thawing was done at 37° C. in a water bath. Lyophilization was done by putting the frozen samples in a commercial lyophilizer (Labconco, USA) with a condenser temperature of −80° C. After drying, the cells were rehydrated with ultra pure water at 37° C. in order to regain their original volume (2.5 ml). […]

UCB derived MNC = assay: Cell proliferation assay based on thymidine incorporation; set-up: species or system human; settings: cells lyophilized at ×10 EGCG (1.89 mg/ml) compared with ×2.5 EGCG (0.47 mg/ml); 48 hour incubation; FIG. 3
Method: Sample's volume was 2.5 ml and samples were frozen and then lyophilized as described above. After being in the lyophilizer for 72 h, the samples were taken out and re-hydrated with 2.4 ml of DDW at 37° C. After re-hydration samples were assayed for CD3 using FACS (fluorescent-activated cell sorter) in accordance with the method described in Hulling et al. The Journal of Immunology 2003, 171: 4824-4829. In addition, a cell proliferation assay was performed. In brief, the hydrated cells were incubated for 48 hour after which a proliferation assay based on thymidine incorporation was carried out (Promega, USA). The results of the proliferation assay are depicted in FIG. 3, wherein the proliferation index of the cells is depicted as a function of their number at initial plating.

[1] = tested on: UCB derived MNC (mature lymphocytes, CD3); assay: CD3 expression by FACS after lyophilization and re-hydration; format: cell-based, human; settings: 0.1M trehalose
Method: Sample's volume was 2.5 ml and samples were frozen and then lyophilized as described above. After being in the lyophilizer for 72 h, the samples were taken out and re-hydrated with 2.4 ml of DDW at 37° C. After re-hydration samples were assayed for CD3 using FACS (fluorescent-activated cell sorter) in accordance with the method described in Hulling et al. The Journal of Immunology 2003, 171: 4824-4829.

[2] = tested on: mononuclear cells (MNC) derived from umbilical cord blood (UCB); assay: Membrane integrity (SYBR14/PI live/dead stain) of UCB derived MNC after freeze thawing or freeze drying; format: cell-based, human; settings: for Membrane integrity (%): 0.1M trehalose in PBS
Method: In the following experiments umbilical cord blood (UCB) was received from “Sheba” Medical Center. The blood was separated on ficoll-paque gradient. 3 ml of Histopaque 1077 was put in a 15 ml plastic test tube. Above it 3 ml of UCB was put and the samples were centrifuged for 30 minutes at 1000 g. After spinning was finished the mononuclear layer was taken out and PBS was added up to 10 ml total volume. The samples were centrifuged again for 10 minutes at 200 g or 250 g., after which, the supernatant was discarded and another step of washing was performed (again, 10 ml PBS was added and samples were centrifuged for 10 minutes at 250 g). At the end of this step a freezing solution (as detailed in each experiment) was added to the cells pellet. The volume of the freezing solution varied depending on the desired cell concentration (concentrations may range for example from 1 to 10×10^6 cells/ml) or volume. Unless otherwise mentioned, a 2.5 ml cell suspension was transferred into a 16 mm glass tube that was then frozen using a multi-gradient directional freezing system (MTG-516 by IMT, Israel), operated essentially as described in WO03/020874.
Unless otherwise stated, the directional freezing system temperatures were set to: 5° C. to −10° C. to −40° C. to −70° C. Seeding was performed before the samples entered the −10° C. temperature. The velocity at which the samples were pushed through the channels of the freezing machine was set to 0.2 mm/sec, resulting in a cooling rate of 5.1° C./min. During freezing the samples were rotated at 60 rounds per minute (RPM). After completion of the freezing process, samples were put in a liquid-nitrogen (LN) tank until they were either thawed or transferred into a lyophilizer.
Lyophilization was performed by taking samples out of the LN tank and putting them in a commercial lyophilizer near the condenser (Labconco, USA), at condenser temperature of −80° C. Samples were held in the lyophilizer for 3 days. After 3 days of lyophilization samples were taken out and rehydrated with 2.4 ml of double distilled water (DDW) at 37° C.
Viability was assessed using the live/dead fluorescent stain SYBR14/PI (Propidium Iodide) or SYTO/PI (both from Molecular Probes, USA) for membrane integrity. These stains are nucleic acid stains, SYBR14 and SYTO are membrane permeable molecules and PI can enter the cell only if the membrane is damaged. Where so specified, the assay used was trypan blue (TB).

| SMILES | cell survival (membrane integrity) (macrophages; second experiment, FIG. 6C) | cell survival (membrane integrity) (macrophages; without Ficoll-Paque separation, FIG. 6B) | membrane integrity (macrophages; frozen-thawed with 0.5M trehalose, whole macrophage units, FIG. 6C) | proliferation index (UCB derived MNC) | CD3 (%) ([1]; Lyophilized with 0.47 mg/ml EGCG) | CD3 (%) ([1]; Lyophilized with 1.89 mg/ml EGCG) | membrane integrity ([2]; 0.1M trehalose with 0.945 or 1.89 mg/ml EGCG, lyophilized and rehydrated, FIG. 2B) | viability (EGCG dose response) ([2]; 0.4M Trehalose, 0.189, 0.47, 0.945 and 1.89 mg/ml EGCG, after freezing and thawing and after freeze drying and re-hydration (exception 0.945 mg/ml after freeze-drying)) | Membrane integrity (%) ([2]; Fresh with 0.47 mg/ml EGCG) | Membrane integrity (%) ([2]; Lyophilized with 0.47 mg/ml EGCG, re-hydrated) | percentage of cells that presented an intact membrane ([2]; after freeze drying with 1.89 mg/ml EGCG, 0.4M Trehalose in PBS, FIG. 2A) |
| --- | --- | --- | --- | --- | --- | --- | --- | --- | --- | --- | --- |
| OC[C@H]1O[C@H](O[C@H]2O[C@H](CO)[C@@H](O)[C@H](O)[C@H]2O)[C@H](O)[C@@H](O)[C@@H]1O [trehalose, Trehalose] | 55.35±2.9% | 91.86±4.2% | 72.03±2.8% | – | – | – | – | – | – | – | – |
| O=C(O[C@@H]1Cc2c(O)cc(O)cc2O[C@@H]1c1cc(O)c(O)c(O)c1)c1cc(O)c(O)c(O)c1 [EGCG, Epigallocatechin gallate] | – | – | – | higher proliferation index | 80% | 81% and 83% and 82% and 78% | very high | increased with increasing EGCG concentration | 97.36 ± 2.2% | 55.1 ± 8.5% and 59.8 ± 1.4% | about 90% |
